# Key:
# [1] = system: NF-κB in Seg-1 esophageal cancer cells; experiment: NF-κB-responsive luciferase reporter assay, Seg-1; type: cell-based, human
# [2] = system: U87 cells infected with Ad.Egr-TNF; experiment: TNFα induction in vitro (Quantikine ELISA of conditioned media); type: cell-based, human
# Method: 10^6 U87 cells were plated and incubated overnight. The cells were then infected with Ad.Egr-TNF at a multiplicity of infection (MOI) of 100 for 3 h at 37° C. After incubation, 3.8 mL of complete media with or without TMZ was added. Conditioned media were harvested at 48 h after treatment and human TNFα production was quantified using a Quantikine ELISA kit (R&D System Inc., Minneapolis, Minn.).
# U87 hindlimb xenografts [3] = experiment: TNFα induction in vivo in hindlimb xenografts; parameters: species or system nude mice
# Method: U87 cells (5×10^6) in […] were injected subcutaneously (sc) into the right hindlimb of nude mice. When tumors reached an average size of 200 mm^3 (length×width×thickness/2), the tumor-bearing mice were randomized into 4 groups: 1. Untreated Control (UTC); 2. Ad.Egr-TNF alone; 3. TMZ alone; 4. Ad.Egr-TNF and TMZ. Ad.Egr-TNF was injected intratumorally (IT) at a dose of 2×10^8 particle units (pu) each day. Two doses of TMZ were given: 2.5 mg/kg/day and 5 mg/kg/day by intraperitoneal (IP) injection 3 h after vector. Four consecutive daily IT and IP injections were given, control animals received IT and IP serum free medium (SFM). Animals were euthanized on day 2 and 4 (i.e., 48 h and 96 h after treatment initiation), tumors harvested, snap-frozen in liquid nitrogen and homogenized in RIPA buffer (150 mM NaCl, 10 mM Tris at pH 7.5, 5 mM EDTA at pH 7.5, […], 1 μg/mL leupeptin, and 2 μg/mL aprotinin). Protein was isolated and concentration measured using Protein Assay reagent (Bio-Rad Laboratories, Hercules, Calif.). TNFα levels in the supernatants were measured as described above.
# JNK = JNK phosphorylation (activation), Western blot; type: cell-based, human; conditions: glioma cells
# Method: 20 μg of whole U87 cell (or nuclear) lysate was subjected to sodium dodecyl sulfate (SDS)-polyacrylamide gel electrophoresis (PAGE). Following electro-transfer, Immobilon-P membranes (Millipore Corp. Burlington, Mass., USA.) were probed with primary polyclonal antibody against IκBα, phospho-Ser32-IκBα, SAPK/JNK, phospho-Thr183/Tyr185-SAPK/JNK, p65, phospho-Ser536-p65 (Cell Signaling Technology Inc. Beverly, […]., USA) diluted 1:1000 overnight at 4° C. Anti-rabbit IgG HRP-linked secondary antibody (Cell Signaling Technology) was diluted 1:1000 in blocking buffer and applied for 1 h at room temperature. Immunoreactive bands were detected by SuperSignal enhanced chemiluminescence (ECL) (Pierce, Rockford, Ill., USA) and exposed to Kodak X-Omat film.
# U87 hindlimb xenografts [4] = experiment: Hindlimb glioma xenograft tumor growth; type: in vivo, nude mice; conditions: 30 days following treatment, second hindlimb study
# Method: Hindlimb Studies: U87 hindlimb xenografts were established as described above in Example 4. In one study, mice were randomized into four groups as described in Example 4 and treatment initiated (day 0). Ad.Egr-TNF (2×10^8 pu) was injected IT twice a week for 4 total injections, and 5 mg/kg TMZ was given IP 3 h after each vector injection for a total of 20 mg/kg. The dose of TMZ used was approximately 0.2 LD10 and was chosen to have modest anti-tumor effect but to not be curative based on previous studies (Friedman, H. S. et al. (1995) Cancer Res 55(13):2853-2857) and data from our lab showing LD50 for IP TMZ to be approximately 500 mg/kg. Tumor volume was measured every 2-3 days. Fractional tumor volume (V/V0 where V0=volume on day 0) was calculated and plotted.
# In a second study, tumor-bearing mice were randomized into eight treatment groups: untreated control (UTC); intratumoral (IT) Ad.Egr-TNF alone; intraperitoneal (IP) TMZ alone; IR alone; Ad.Egr-TNF and TMZ; Ad.Egr-TNF and IR; TMZ and IR; and Ad.Egr-TNF, TMZ and IR. Ad.Egr-TNF was administered IT at a dose of 2×10^8 pu/10 μL twice a week for 2 weeks, IP TMZ was given 3 h after vector at 5 mg/kg to a total of 20 mg/kg. […] Xenografts were measured twice a week using calipers, tumor volume was calculated, and fractional tumor volumes (V/V0 where V0=volume on day 0) were plotted.
# [5] = system: NF-κB in MIAPaCa-2 pancreatic cancer cells; experiment: NF-κB-responsive luciferase reporter assay, MIAPaCa-2; type: cell-based, human
# U87 cells = experiment: U87 cell viability (Trypan Blue dye exclusion, MTS); type: cell-based, human; conditions: 10 ng/mL TNFα and/or 100 μM TMZ
# Method: Trypan Blue dye exclusion method was employed. 10^4 U87 cells were plated and incubated at 37° C. overnight. Subsequently, the cells were contacted with media containing TNFα (10 ng/mL) and/or TMZ (100 μM), incubated for 3 h, and washed. […] All of the studies were performed in triplicate.
structure (smiles),measurement,setting,value
"Cn1nnc2c(C(N)=O)ncn2c1=O [TMZ, temozolomide]",TNFα-induced NF-κB transcriptional activity,[1],activated
same,TNFα detection in vitro,[2],TNFα was detected
same,increase in TNFα expression compared to cells infected with vector alone,"[2]; U87 cells infected with Ad.Egr-TNF (MOI 100), 100 μM TMZ, 48 h",2.3 fold
same,TNF detection in vivo,U87 hindlimb xenografts [3],No TNF was detected
same,JNK phosphorylation (activation),JNK,progressive and delayed activation
same,animals with complete disappearance of palpable tumor,U87 hindlimb xenografts [4],1/10
same,TNFα-induced NF-κB transcriptional activity,[5],activated
same,effect on U87 cell viability,U87 cells,Minimal effects

# Reference: US20110091375A1, “USE OF THE COMBINATION COMPRISING TEMOZOLOMIDE AND TNF-ALPHA FOR TREATING GLIOBLASTOMA” (THE UNIVERSITY OF CHICAGO, priority 2004, published 2011)
